Experimental data taken from patent publication US20260117173A1, “METHOD FOR MESENCHYMAL PHENOTYPE REVERSION IN PRIMARY HUMAN CORNEAL ENDOTHELIAL CELLS” (UNIVERSITÀ DEGLI STUDI DI MODENA E REGGIO EMILIA, priority 2022, published 2026).

What was measured:
[1] = system: primary human corneal endothelial cells (HCEnCs); assay: Immunofluorescence of ZO-1 and α-SMA markers in primary HCEnCs; type: cell-based
Description: (§1) HCEnCs were cultured between 31 and 39° C. in 4-10% CO2, changing the growth medium every other day. The growth medium can be OptiMEM-I, MEM, F12, Human Endothelial SFM, 2-10% HyClone fetal bovine serum (FBS), 2-10 ng/ml epidermal growth factor (EGF), 5-50 μg/mL ascorbic acid, 40-300 mg/L calcium chloride, 0.01-0.2% chondroitin sulphate, and penicillin/streptomycin. Upon confluency, HCEnCs were rinsed in DPBS and passaged at a ratio of 1:2 or 1:3 with Trypsin or other proteolytic enzymes for 10-30 min at 31-39° C. in 4-10% CO2. Sub-confluent cultures were harvested approximately 1 day after plating.
(§2) Before or whenever primary HCEnCs encountered a morphological variation, the GSK inhibitor CHIR99021 (also defined as 6-[[2-[[4-(2,4-Dichlorophenyl)-5-(5-methyl-1H-imidazol-2-yl)-2-pyrimidinyl]amino]ethyl]amino]-3-pyridinecarbonitrile) was prepared and added to the culture media at a concentration range of 0.1-10 μM. Multiple solvents and methods have been used to dissolve CHIR stock solution. Ultrasonic were applied for CHIR dilutions in sodium carboxymethyl cellulose (CMC-Na) in saline water and 20% Sulfobutylether-β-Cyclodextrin (SBE-β-CD), adjusted to pH 3-6, with 1 N acetic acid. CHIR can be also diluted in dimethyl sulfoxide (DMSO) at 70-100% (v/v), with a solution composed of 10% DMSO 40% PEG300 5% Tween-80 in saline water or composed of 10% DMSO and 20% SBE-β-CD in saline water. Once obtained a clear solution, the stock solution was aliquoted and stored at-20/−80° C. until use.
(§3) Immunofluorescence staining was performed on primary cultured HCEnCs after fixation in 3% PFA 15 min at room temperature (RT). Triton X-100 used at 1% for 10 min at RT allowed cell permeabilization and a solution of bovine serum albumin (BSA) 2%, FBS 2%, Triton X-100 at 0.01% in PBS was used for 30 min at 37° C. to block the non-specific binding sites. Primary and secondary antibodies were incubated for 1 h at 37° C. while nuclei were counterstained with DAPI at RT for 5 minutes before mounting the glass coverslips using amounting medium such as DAKO. Primary antibodies used herein are listed in Table 2 while secondary antibodies used are: Alexa Fluor 488 anti-rabbit, 1:2,000, and Alexa Fluor 568 anti-mouse, 1:1,000 (Thermo Fisher Scientific). Images were obtained with a confocal microscope (LSM900 Airyscan—Carl Zeiss).

[2] = system: corneal endothelial derived cell line, B4G12; details: B4G12 cell line (Wang et al., 2022); cited from earlier work
[3] = system: primary human corneal endothelial cells (HCEnCs); assay: Phase-contrast morphology of primary HCEnCs cultures treated with CHIR; type: cell-based
Description: Human corneas tissues (obtained after informed consent to the eye bank and the use was approved by the ethical committee) were preserved in media for tissue preservation as for example Eusol, OptiSOL or others and used within approximately 15 days from death; a list of detail for some corneas used and relative experiments is shown in Table 1. HCEnCs were isolated through Descemet's stripping and digestion with Collagenase A (Roche) for 1-16 h at 30-39° C. After 5-10 minutes in Trypsin or other proteolytic enzymes at 37° C., HCEnCs were pelleted at 1,200 rpm for 3 min and plated in FNC Coating mix treated wells.
as §1, §2

[4] = system: primary human corneal endothelial cells (HCEnCs); assay: HCEnCs count upon detachment at confluency for progressive passages; type: cell-based; details: CHIR 0.1-9 μM vs relative untreated control
Description: as §1, with “HCEnCs” left out

[5] = system: primary human corneal endothelial cells (HCEnCs); assay: Immunofluorescence of ki67 in sub-confluent HCEnCs; type: cell-based
Description: as §3, with “HCEnCs” left out, “Airyscan-Carl” for “Airyscan—Carl”

[6] = system: primary human corneal endothelial cells (HCEnCs); assay: Cell cycle analysis by FACS (propidium iodide) of sub-confluent HCEnCs; type: cell-based; details: sub-confluent HCEnCs P5-P6-P8, CHIR 0.1-9 μM vs untreated
Description: The cell cycle was studied by staining sub-confluent cultures of […] with Propidium Iodide (PI; Sigma-Aldrich). […] from cell culture were washed with DPBS and incubated for 1 h at 4° C. in the dark with 250 μL of a PBS solution composed by PI 50 μg/mL, Triton X-100 (Bio-Rad, USA) at 0.1%. Cells were then analysed using BD FACSCanto II (BD BIOSCIENCES; San Jose, CA USA). For each sample, 20,000 events were considered for the analysis to ensure statistical relevance and results were analysed with a ModFit 3.0 software.

[7] = P1, CHIR at 0.1-9 μM, vs untreated (ctr)
[8] = P1, CHIR at a concentration >10 μM

Cc1cnc(-c2cnc(NCCNc3ccc(C#N)cn3)nc2-c2ccc(Cl)cc2Cl)[nH]1 [CHIR, 6-[[2-[[4-(2,4-Dichlorophenyl)-5-(5-methyl-1H-imidazol-2-yl)-2-pyrimidinyl]amino]ethyl]amino]-3-pyridinecarbonitrile]
percentage of α-SMA expressing cells ([1]; P1, CHIR 0.1-9 μM, untreated approx. 40%): ~17%
ZO-1 expression [1, 7]: restored sealed ZO-1 pattern of expression
α-SMA expression [1, 7]: reduced levels of α-SMA
ZO-1 expression [1, 8]: disappearance of ZO-1 expression
endothelial to mesenchymal transition (EnMT) [1, 8]: accelerated the process of endothelial to mesenchymal transition
α-SMA expression [1, 8]: highly expressed in every cell
ZO-1 expression ([1]; P3, CHIR 0.1-9 μM): restores ZO-1 pattern of tight junctions
α-SMA expression ([1]; P3, CHIR 0.1-9 μM): drastically reduces expression of α-SMA
cell proliferation [2]: concomitant enhancement in cell proliferation
mesenchymal conversion [2]: prevent mesenchymal conversion (but not to reverse it)
reversion of elongated morphology ([3]; CHIR 0.1-9 μM added at a later passage, P6 confluence): able to reverse the elongated morphology
reversion of cell phenotype / morphology ([3]; CHIR 0.1-9 μM applied to HCEnCs already elongated in culture (P3)): restoring a polygonal morphology
reversion of elongated phenotype ([3]; CHIR 0.1-9 μM, progressive passages, at least up to P8): reversing the elongated phenotype
HCEnCs morphology ([3]; P1, CHIR at 0.1-9 μM, vs untreated HCEnCs (ctr)): restored the polygonal morphology
HCEnCs morphology ([3]; P1, CHIR at concentrations >10 μM, vs untreated cells): exacerbated elongated morphology
HCEnCs morphology ([3]; P3, CHIR 0.1-9 μM vs untreated (ctr)): untreated cells (ctr) appeared more elongated than CHIR treated HCEnCs
number of HCEnCs at confluency for each passage [4]: constantly lower
cell proliferation rate ([5]; primary HCEnCs, evaluated with different assays (FACS, count, ki67)): does not enhance cell proliferation rate
ki67 protein expressing cells ([5]; sub-confluent HCEnCs P5, Strain 3, CHIR 0.1-9 μM vs untreated): equal
ki67 protein expressing cells ([5]; sub-confluent HCEnCs P5, Strain 4, p<0.05, CHIR 0.1-9 μM vs untreated): significant reduction
percentage of cells at G2/M [6]: reduced the percentage of cells at G2/M
percentage of cells in G0/G1 phase of cell cycle [6]: enhanced the percentage of cells in G0/G1 phase
